Residues, ends and D or L forms follow the SMILES beside them. *: point of attachment. Paclitaxel(2'-O-succinyl) = CC(=O)O[C@H]1C(=O)[C@@]2(C)[C@H]([C@H](OC(=O)c3ccccc3)[C@]3(O)C[C@H](OC(=O)[C@H](OC(=O)CCC(=O)*)[C@@H](NC(=O)c4ccccc4)c4ccccc4)C(C)=C1C3(C)C)[C@]1(OC(C)=O)CO[C@@H]1C[C@@H]2O
What was measured:
9 L (glioblastome) cells = experiment: Cytotoxicity assay (MTT), 9L cells; format: cell-based; settings: for IC50: 9L cells, MTT test, read-out: IC50 (concentration resulting in 50% inhibition of growth)
Method: (§1) 9 L (glioblastome), MCF-7 and MDA-MB-435 (breast cancer), and SK-N-SH (neuroblastome) cells were obtained commercially from ATCC. The cells are seeded at approximately 10^4 cells per well, 24 h before addition of the products. They are then at 60-80% confluence on the day of the experiment. The cells are maintained in culture at 37° C. in an atmosphere at 95% humidity and 5% CO2 in an OptiMem® medium.
(§2) The cells are incubated either with free Taxol or with the vectorized Taxol at increasing concentrations for 48 hours to 72 hours. At the end of the culturing period, MTT (3-(4,5-dimethylthiazole-2-yl)-2,5-diphenyltetrazolium bromide) is added to the wells and the culture plates are then incubated for 4 hours in an incubator. The resulting crystalline deposit of formazan is then dissolved by addition of 200 μl of DMF/SDS. The optical density (OD) is measured at 550 nm (reference 630 nm) using a microplate reader.
Graphic representation of the percentages of OD of the treated wells as a function of the concentration of products makes it possible to determine the IC50. This corresponds to the concentration of the product which inhibits 50% of growth.
(§3) The sensitivity of the 9L, MCF-7, MDA-MB-435 and SK-N-SH cells to free Taxol and to the vectorized Taxol was measured by the MTT test under the experimental conditions defined above for which the relationship between the optical density and the number of viable cells is linear.
(§4) These cells are incubated with increasing concentrations of product and, after […] of incubation, cell survival is measured by the MTT test.

[1] = tested on: MCF-7 (breast cancer) cells; experiment: Cytotoxicity assay (MTT), MCF-7 cells; format: cell-based; settings: Homo sapiens, MCF7, MTT test, read-out: IC50 (concentration resulting in 50% inhibition of growth)
Method: as §1
as §2, with “reader. […]” for “reader.”
as §3, §4

[2] = tested on: MDA-MB-435 (breast cancer) cells; experiment: Cytotoxicity assay (MTT), MDA-MB-435 cells; format: cell-based; settings: Homo sapiens, MTT test, read-out: IC50 (concentration resulting in 50% inhibition of growth)
Method: as §1
as §2, with “reader. […]” for “reader.”
as §3, §4

[3] = tested on: SK-N-SH (neuroblastome) cells; experiment: Cytotoxicity assay (MTT), SK-N-SH cells; format: cell-based; settings: Homo sapiens, MTT test, read-out: IC50 (concentration resulting in 50% inhibition of growth)
Method: as §1
as §2, with “reader. […]” for “reader.”
as §3, §4

blood/brain barrier = experiment: In situ brain perfusion (BBB penetration, Kin); format: in vivo; settings: mouse, in situ brain perfusion for 60 seconds in buffer, 14C-labelled Taxol, FIG. 2
Method: Mice (20-25 g, Iffa-Credo, Arbresle, France) are anesthetized. After exposure of the common carotid, the right external carotid artery is ligated at the level of the bifurcation with the internal carotid and the common carotid is ligated between the heart and the site of implantation of the catheter (polyethylene catheter, ID: 0.76). This catheter, prefilled with a solution of heparin (100 units/ml), is inserted into the common carotid. The mice are perfused with the perfusion buffer (128 mM NaCl, 24 mM NaHCO3, 4.2 mM KCl, 2.4 mM NaH2PO4, 1.5 mM CaCl2, 0.9 mM MgSO4 and 9 mM D-glucose) This buffer is filtered and then a mixture containing 95% 02/5% CO2 is bubbled in order to maintain the pH close to 7.4 and to provide the brain with oxygen during the perfusion.
The mice are perfused with the buffer containing free Taxol or vectorized Taxol. In each product, the Taxol is radiolabeled with carbon 14 (specific activity: 55 mCi/mmole, Sigma, France). Just before the beginning of perfusion, the heart is stopped by sectioning the ventricles, in order to avoid reflux of the perfusate during perfusion. The right hemisphere is then perfused at a rate of 10 ml/min for 60 seconds, after which the mouse is decapitated. The amount of radioactivity in the right hemisphere is then measured and the brain penetration (Kin) is calculated. […]

CC(=O)O[C@H]1C(=O)[C@@]2(C)[C@H]([C@H](OC(=O)c3ccccc3)[C@]3(O)C[C@H](OC(=O)[C@H](O)[C@@H](NC(=O)c4ccccc4)c4ccccc4)C(C)=C1C3(C)C)[C@]1(OC(C)=O)CO[C@@H]1C[C@@H]2O [Free Taxol, paclitaxel]
IC50 (9 L (glioblastome) cells): 3500 nM | IC50 [1]: 42 nM | IC50 [2]: 95 nM | IC50 [3]: 87 nM

CC(=O)O[C@H]1C(=O)[C@@]2(C)[C@H]([C@H](OC(=O)c3ccccc3)[C@]3(O)C[C@H](OC(=O)[C@H](OC(=O)CCC(=O)N[C@@H](CCCNC(=N)N)C(=O)N[C@@H](CCCNC(=N)N)C(=O)N[C@@H](CC(C)C)C(=O)N[C@@H](CO)C(=O)N[C@@H](Cc4ccc(O)cc4)C(=O)N[C@@H](CO)C(=O)N[C@@H](CCCNC(=N)N)C(=O)N[C@@H](CCCNC(=N)N)C(=O)N[C@@H](CCCNC(=N)N)C(=O)N[C@@H](Cc4ccccc4)C(=O)O)[C@@H](NC(=O)c4ccccc4)c4ccccc4)C(C)=C1C3(C)C)[C@]1(OC(C)=O)CO[C@@H]1C[C@@H]2O [Taxol-SynB3] ({Paclitaxel(2'-O-succinyl)}-RRLSYSRRRF-OH; N-terminus and C-terminus assumed)
times more active than the free Taxol (9 L (glioblastome) cells; 9 L cell line, ratio of IC50): approximately 5 times | IC50 (9 L (glioblastome) cells): 600 nM | increase of passage into the brain (Kin) versus free Taxol (blood/brain barrier): approximately 12 fold | solubility (physchem): > 10000 µg/mL

Reference: US20060293242A1, “Transporting of taxoid derivatives through the blood brain barrier” (priority 2001, published 2006)
